Here are results for 7 compounds from US20230276804A1, “A PESTICIDALLY ACTIVE MIXTURE COMPRISING PYRAZOLOPYRIDINE ANTHRANILAMIDE COMPOUND, OXIDES OR SALTS THEREOF” (priority 2020, published 2023).

“And” between values parts separate entries of the source, which are not always exact repeats. Equal entries are not always repeated.

What all share (assay type): in vivo
One test concerns Helicoverpa armigera. The test is described as follows: Diet incorporation method against Helicoverpa armigera (Example A). As to conditions: single compound, 96 h. How it is done: The diet incorporation method was used, in which semi-synthetic diet was incorporated into the test solutions consisting either of the single compounds or respective compound combinations, when the temperature was approximately 50° C. in the bio-assay containers, then stirred thoroughly for proper mixing and allowed to cool for 30 min. The solidified diet was cut into equal pieces, and then each piece was transferred into one cell of a bio-assay tray. A single starved third instar larva was released into each of these cells of the bio-assay trays and the tray was covered with a lid. The bio-assay trays were kept under laboratory conditions at a temperature of 25° C. and relative humidity of 70%. Observations on dead, moribund and live larvae were recorded 96 h after the release of the larvae. Percent mortality was calculated by combining dead and moribund larvae and comparing the result to the one of the untreated control. The results are shown for the compound of formula (I-III) in Table A.

Another test concerns Spodoptera litura. Put plainly: Diet incorporation method against Spodoptera litura (Example B). As to conditions: single compound, 96 h. As to the method:
The diet incorporation method was used, in which semi-synthetic diet was incorporated into the test solution consisting either of the single compound or respective compound combinations, when the temperature was approximately 50° C. in the bioassay containers, then stirred thoroughly for proper mixing and allowed to cool for 30 min. The solidified diet was cut into equal pieces, and then each piece was transferred into one cell of the bio-assay trays. A single starved third instar larva was released into each of these cells of the bio-assay trays and the tray was covered with a lid. The bio-assay trays were kept under laboratory conditions at a temperature of 25° C. and relative humidity of 70%. Observations on dead, moribund and live larvae were recorded 96 h after the release. Percent mortality was calculated by combining dead and moribund larvae and comparing the result with the one of the untreated control. The results are shown for the compound of formula (I-III) in Table B.

The test system of another test is Phakopsora pachyrhizi. Put plainly: Preventive glasshouse test against Phakopsora pachyrhizi in soybean (Example H). The settings on record: single compound. How it is done:
The single compounds or the respective compound combinations were dissolved in 2% dimethyl sulfoxide/acetone and then mixed with water containing an emulsifier to a calibrated spray volume of 50 ml. The test solutions were poured into spray bottles for further applications.
To test the preventive activity of compounds, healthy young Soybean plants, raised in the greenhouse, were sprayed with the active compound preparation at the stated application rates inside the spray cabinets using hollow cone nozzles. One day after treatment, the plants were inoculated with a suspension containing 2×10^5 Phakopsora pachyrhizi conidia. The inoculated plants were then kept in a greenhouse chamber at a temperature of 22-24° C. and 80-90% relative humidity for disease expression.
A visual assessment of the performance of the single compounds and respective compound combinations was carried out by rating the disease severity (0-100% scale) on treated plants 3, 7, 10 and 15 days after application. Efficacy (% control) of the compounds was calculated by comparing the disease rating in the treatment with the one of the untreated control. The compounds were also assessed for their plant compatibility by recording symptoms like necrosis, chlorosis and stunting. The results have been described for the compound of formula (I-III) in Table H.

Another test relates to Erysiphe cichoracearum. Put plainly: Preventive glasshouse test against Erysiphe cichoracearum in cucumber (Example K). The settings on record: single compound. As to the method: The single compounds or the respective compound combinations were dissolved in 2% dimethyl sulfoxide/acetone and then mixed with water containing emulsifier to a calibrated spray volume of 50 mL. The test solutions were poured into spray bottles for further applications.
To test the preventive activity of compounds, healthy young cucumber plants, raised in the greenhouse, were sprayed with the active compound preparation at the stated application rates inside the spray cabinets using hollow cone nozzles. One day after treatment, the plants were inoculated with a conidial suspension containing 2×10^5 Erysiphe cichoracearum inoculum. The inoculated plants were then kept in a greenhouse chamber at a temperature of 22-24° C. and 50-60% relative humidity for disease expression.
A visual assessment of the performance of the compounds and the respective compound combinations was carried out by rating the disease severity (0-100% scale) on treated plants 3, 7, 10 and 15 days after application. Efficacy (% control) of the single compounds or compound combinations was calculated by comparing the disease rating in the treatment with the one of the untreated control. The compounds were also assessed for their plant compatibility by recording symptoms like necrosis, chlorosis and stunting. The results have been described for the compound of formula (I-III) in Table K.

In the next test the test system is Alternaria solani. Put plainly: Preventive glasshouse test against Alternaria solani in tomato (Example G). As to conditions: single compound. As to the method:
(§1) The single compounds or respective compound combinations were dissolved in 2% dimethyl sulfoxide/acetone and then mixed with water containing emulsifier to a calibrated spray volume of 50 mL. The test solutions were poured into spray bottles for further applications.
To test the preventive activity, healthy young tomato plants, raised in the greenhouse, were sprayed with the active compound preparation at the stated application rates inside the spray cabinets using hollow cone nozzles. One day after treatment, the plants were inoculated with a spore suspension containing 0.24×10^6 Alternaria solani inoculum and 2% Malt. The inoculated plants were then kept in a greenhouse chamber at a temperature of 22-24° C. and 90-95% relative humidity for disease expression.
A visual assessment of the performance of the single compounds or compound combinations was carried out by rating the disease severity (0-100% scale) on treated plants 3, 7, 10 and 15 days after application. Efficacy (% control) of the single compounds and mixtures was calculated by comparing the disease rating in the treatment with the one of the untreated control. The compounds were also assessed for their plant compatibility by recording symptoms like necrosis, chlorosis and stunting. The results have been described for the compound of formula (I-III) in Table G.

The subject of the next test is Septoria nodorum. Put plainly: Preventive glasshouse test against Parastagonospora nodorum/Septoria nodorum/Stagnospora nodorum in wheat (Example J). The settings on record: single compound. How it is done:
as §1
To test the preventive activity of compounds, healthy young wheat plants, raised in the greenhouse, were sprayed with the active compound preparation at the stated application rates inside the spray cabinets using hollow cone nozzles. One day after treatment, the plants were inoculated with a spore suspension containing 2.8×10^6 Stagnospora nodorum inoculum.
The inoculated plants were then kept in a greenhouse chamber at 22-25° C. temperature and 90-100% relative humidity for disease expression.
A visual assessment of the performance of the single compounds or compound combinations was carried out by rating the disease severity (0-100% scale) on treated plants 3, 7, 10 and 15 days after application. Efficacy (% control) of the single compounds and mixtures was calculated by comparing the disease rating in the treatment with the one of the untreated control. The compounds were also assessed for their plant compatibility by recording symptoms like necrosis, chlorosis and stunting. The results have been described for the compound of formula (I-III) in Table J.

A further test relates to Pyricularia oryzae. As to conditions: single compound, 0.05 ppm, preventive, rice.
Setting [1] is: Helicoverpa armigera, 100 ppm, read-out: Observed Efficacy (%).
Where [2] appears, read: Spodoptera litura, 100 ppm, read-out: Observed Efficacy (%).
Setting [3] is: Spodoptera litura, 200 ppm, read-out: Observed Efficacy (%).

Turning to `C=CCOC1=NS(=O)(=O)c2ccccc21` [Probenazole], the pest or weed control at 100 ppm in the test with Helicoverpa armigera (setting [1]) worked out at 0%; in the test with Spodoptera litura (setting [2]) it was 12.5%. Also, the pest or weed control at 200 ppm in the test on Spodoptera litura (setting [3]) was 0%. In addition, the “Observed Efficacy (%)” value in the test with Phakopsora pachyrhizi (2.0 ppm) was 22%; in the test with Phakopsora pachyrhizi (10.0 ppm) it was 28%; in the test on Erysiphe cichoracearum (Conc. 2 ppm), 15% and 16%; in the test with Erysiphe cichoracearum (Conc. 10 ppm), 22%.
Consider `N#Cc1c[nH]cc1-c1cccc2c1OC(F)(F)O2` [Fludioxonil], for which the pest or weed control at 100 ppm in the test on Spodoptera litura (setting [2]) stood at 37.5%. For the same compound, in the test on Spodoptera litura (setting [3]), the pest or weed control at 200 ppm turned out to be 25%. Besides, the “Observed Efficacy (%)” value in the test with Phakopsora pachyrhizi (2.0 ppm) was 19%; in the test on Phakopsora pachyrhizi (10.0 ppm), 28%.
For `Cn1cc(C(=O)Nc2ccccc2-c2cc(F)c(F)c(F)c2)c(C(F)F)n1` [Fluxapyroxad], the “Observed Efficacy (%)” value was 0% with Spodoptera litura (100 ppm); 0% with Spodoptera litura (200 ppm); 0% in the test with Spodoptera litura (500 ppm); 14% in the test with Alternaria solani (0.05 ppm); 26% with Alternaria solani (0.1 ppm); 12% in the test on Septoria nodorum (0.05 ppm). Besides, the “Observed Efficacy (%)” value in the test on Septoria nodorum (0.1 ppm) and in the test on Erysiphe cichoracearum (Conc. 0.05 ppm) was 29% in each case.
Regarding `O=C(NCCc1ncc(C(F)(F)F)cc1Cl)c1ccccc1C(F)(F)F` [Fluopyram], in the test on Helicoverpa armigera (Helicoverpa armigera, 50 ppm, read-out: Observed Efficacy (%)), the pest or weed control at 50 ppm came out at 0%. Further, the pest or weed control at 100 ppm with Spodoptera litura (setting [2]) was 0%. For the same compound, the “Observed Efficacy (%)” value is 67% with Alternaria solani (10 ppm) and 25% in the test on Septoria nodorum (10 ppm).
As to `CO/C=C(/C(=O)OC)c1ccccc1Oc1cc(Oc2ccccc2C#N)ncn1` [Azoxystrobin], the “Observed Efficacy (%)” value was found to be 0% in the test with Helicoverpa armigera (100 ppm); 0% in the test with Helicoverpa armigera (500 ppm); 0% with Spodoptera litura (100 ppm); 0% with Spodoptera litura (500 ppm); 26% with Alternaria solani (0.05 ppm); 40% with Alternaria solani (0.1 ppm). The “Observed Efficacy (%)” value in the test with Pyricularia oryzae worked out at 30%; with Erysiphe cichoracearum (Conc. 0.05 ppm) it was 26%; in the test on Erysiphe cichoracearum (Conc. 0.1 ppm), 43%.
Regarding `N#Cc1ccccc1NC(=O)c1snc(Cl)c1Cl` [Isotianil], the “Observed Efficacy (%)” value with Helicoverpa armigera (100 ppm) is listed as 0%; with Helicoverpa armigera (200 ppm), 25%; in the test on Spodoptera litura (100 ppm) it was 0%; in the test on Spodoptera litura (200 ppm), 0%; with Phakopsora pachyrhizi (10.0 ppm) it was 31%; in the test on Phakopsora pachyrhizi (50.0 ppm) it was 41%. Moreover, the “Observed Efficacy (%)” value in the test with Erysiphe cichoracearum (Conc. 10 ppm) is on record as 51%; with Erysiphe cichoracearum (Conc. 50 ppm), 57%.
`COC(=O)N(OC)c1ccccc1COc1ccn(-c2ccc(Cl)cc2)n1` [Pyraclostrobin]: the pest or weed control at 100 ppm with Helicoverpa armigera (setting [1]) amounted to 0%; in the test on Spodoptera litura (setting [2]), 12.5%. In the test with Spodoptera litura (setting [3]), the pest or weed control at 200 ppm amounted to 12.5%. The pest or weed control at 500 ppm with Spodoptera litura (Spodoptera litura, 500 ppm, read-out: Observed Efficacy (%)) is 12.5%. In addition, the “Observed Efficacy (%)” value with Alternaria solani (0.05 ppm) is listed as 26%; in the test on Alternaria solani (0.1 ppm), 26%; in the test with Phakopsora pachyrhizi (0.05 ppm) it was 39%; in the test with Erysiphe cichoracearum (Conc. 0.05 ppm) it was 29%.
